The values that follow come from patent US20240090503A1, “FUNGICIDAL OXADIAZOLES AND THEIR MIXTURES” (FMC CORPORATION, priority 2020, published 2024).

Experiment [1] deals with Phakopsora pachyrhizi (the causal agent of Asian soybean rust). Briefly: Test A: preventive spray on soybean seedlings, Asian soybean rust, visual disease rating. Conditions: soybean seedlings. It is filed as in vivo. An excerpt: (§1) General protocol for preparing test suspensions for Tests A-D: the test compounds were first dissolved in acetone in an amount equal to 3% of the final volume and then suspended at the desired concentration (in ppm) in acetone and purified water (50/50 mix by volume) containing 250 ppm of the surfactant PEG400 (polyhydric alcohol esters). The resulting test suspensions were then used in Tests A-D.
The test suspension was sprayed to the point of run-off on soybean seedlings. The following day the seedlings were inoculated with a spore suspension of Phakopsora pachyrhizi (the causal agent of Asian soybean rust) and incubated in a saturated atmosphere at 22° C. for 24 h and then moved to a growth chamber at 22° C. for 8 days, after which time visual disease ratings were made.
(§2) The test results for Tests A-C presented in Table A below for compounds of Formula 1 illustrate the fungicidal activity of component (a) contributing to the plant disease control utility of compositions comprising component (a) in combination with component (b) according to the present invention. In the Table, a rating of 100 indicates 100% disease control and a rating of 0 indicates no disease control (relative to the controls). A dash (-) indicates the compound was not tested. The test suspensions were sprayed at the concentration listed in the column “Rate in ppm”, unless otherwise indicated. An asterisk “*” next to the rating indicates a 250 ppm test suspension was used, a double asterisk “**” next to the rating indicates a 100 ppm test suspension was used, and a triple asterisk “***” next to the rating indicates a 50 ppm test suspension was used.

Experiment [2] deals with Puccinia recondita f. sp. tritici (the causal agent of wheat leaf rust). Briefly: Test C: preventive spray on wheat seedlings, wheat leaf rust, visual disease rating. Conditions: wheat seedlings. The experiment is classed as in vivo.
Source text: as §1
The test suspension was sprayed to the point of run-off on wheat seedlings. The following day the seedlings were inoculated with a spore suspension of Puccinia recondita f. sp. tritici; (the causal agent of wheat leaf rust) and incubated in a saturated atmosphere at 20° C. for 24 h, and then moved to a growth chamber at 20° C. for 6 days, after which time visual disease ratings were made.
as §2

[3] abbreviates: test suspension 10 ppm, 100 = 100% disease control, 0 = no control.

On to `COC(=O)c1c2ccccc2nn1Cc1ccc(-c2noc(C(F)(F)F)n2)cc1` [compound 141], for which, in experiment [1] (setting [3]), the “Test A disease control rating” value was 100%. The “Test C disease control rating” value in experiment [2] (test suspension 10 ppm) is listed as 88%.
As to `CN(C)C(=O)c1nn(Cc2ccc(-c3noc(C(F)(F)F)n3)cc2)c2ccccc12` [compound 148], the “Test A disease control rating” value in experiment [1] (setting [3]) was found to be 100%. The “Test C disease control rating” value in experiment [2] (test suspension 10 ppm) came out at 96%.
Consider `N#CC1CCN(Cc2ccc(-c3noc(C(F)(F)F)n3)cc2)C1` (stereo not shown) [compound 151], for which, in experiment [1] (test suspension 50 ppm), the “Test A disease control rating” value worked out at 100%. The “Test C disease control rating” value in experiment [2] (test suspension 50 ppm) is 98%.
Consider `FC(F)(F)c1nc(-c2ccc(Cn3ncc4cnc(Cl)nc43)cc2)no1` [compound 152], for which, in experiment [1] (setting [3]), the “Test A disease control rating” value is listed as 100%. The “Test C disease control rating” value in experiment [2] (test suspension 10 ppm) came out at 100%.
On to `CCOC(=O)c1cc(C(=O)OCC)n(Cc2ccc(-c3noc(C(F)(F)F)n3)cc2)n1` [compound 154], for which the “Test A disease control rating” value in experiment [1] (test suspension 50 ppm) is given as 100%. In experiment [2] (test suspension 50 ppm), the “Test C disease control rating” value turned out to be 100%.
Regarding `O=c1c2ccccc2sn1Cc1ccc(-c2noc(C(F)(F)F)n2)cc1` [compound 155], in experiment [1] (setting [3]), the “Test A disease control rating” value came out at 60%. In addition, the “Test C disease control rating” value in experiment [2] (test suspension 10 ppm) came to 0%.
On the same counts, the results for `O=c1ccc2ccccc2n1Cc1ccc(-c2noc(C(F)(F)F)n2)cc1` [compound 157] are 100% and 100%.
Consider `FC(F)(F)c1nc(-c2ccc(CN3Cc4ccccc4C3)cc2)no1` [compound 160], for which the “Test A disease control rating” value in experiment [1] (setting [3]) turned out to be 99%. Moreover, in experiment [2] (test suspension 10 ppm), the “Test C disease control rating” value is given as 98%.
On the same counts, the results for `C=C(Br)COC(=O)c1cnn(Cc2ccc(-c3noc(C(F)(F)F)n3)cc2)c1` [compound 167] are 100% and 100%.
On the same counts, the results for `C=CC(F)(F)OC(=O)c1cnn(Cc2ccc(-c3noc(C(F)(F)F)n3)cc2)c1` [compound 168] are 100% and 100%.
Regarding `CC(C)=CCOC(=O)c1cnn(Cc2ccc(-c3noc(C(F)(F)F)n3)cc2)c1` [compound 169], the “Test A disease control rating” value in experiment [1] (setting [3]) is recorded as 100%. In addition, the “Test C disease control rating” value in experiment [2] (test suspension 10 ppm) is given as 99%.
As for `COC(=O)C1(NC(=O)c2cnn(Cc3ccc(-c4noc(C(F)(F)F)n4)cc3)c2)CC1` [compound 172], the “Test A disease control rating” value in experiment [1] (setting [3]) was 100%. Also, in experiment [2] (test suspension 10 ppm), the “Test C disease control rating” value is 99%.
On the same counts, the results for `N#CC1(NC(=O)c2cnn(Cc3ccc(-c4noc(C(F)(F)F)n4)cc3)c2)CC1` [compound 173] are 100% and 96%.
For `CCOC(=O)c1nn(Cc2ccc(-c3noc(C(F)(F)F)n3)cc2)c(C(=O)OCC)c1C(=O)OCC` [compound 174] the same measures were 85% and 91%.
As to `Cc1cc(C(=O)O)nn1Cc1ccc(-c2noc(C(F)(F)F)n2)cc1` [compound 179], the “Test A disease control rating” value in experiment [1] (setting [3]) came to 98%. Moreover, the “Test C disease control rating” value in experiment [2] (test suspension 10 ppm) was found to be 9%.
On to `Cc1cc(C(=O)OC(=O)C(F)(F)F)nn1Cc1ccc(-c2noc(C(F)(F)F)n2)cc1` [compound 180], for which the “Test A disease control rating” value in experiment [1] (setting [3]) came out at 97%. The “Test C disease control rating” value in experiment [2] (test suspension 10 ppm) amounted to 0%.
For `Cc1cc(C(=O)NCC#N)nn1Cc1ccc(-c2noc(C(F)(F)F)n2)cc1` [compound 181] the same measures were 100% and 100%.
As for `Cc1cc(C(=O)N(C)C)nn1Cc1ccc(-c2noc(C(F)(F)F)n2)cc1` [compound 182], in experiment [1] (setting [3]), the “Test A disease control rating” value stood at 100%. The “Test C disease control rating” value in experiment [2] (test suspension 10 ppm) is reported as 100%.
Regarding `Cc1cc(C(=O)OCC#N)nn1Cc1ccc(-c2noc(C(F)(F)F)n2)cc1` [compound 184], in experiment [1] (setting [3]), the “Test A disease control rating” value turned out to be 100%. For the same molecule, the “Test C disease control rating” value in experiment [2] (test suspension 10 ppm) came to 55%.
In the case of `Cc1cc(C(=O)OCC#N)nn1Cc1ccc(-c2noc(C(F)(F)F)n2)cc1` [compound 185], in experiment [1] (setting [3]), the “Test A disease control rating” value was 100%. The “Test C disease control rating” value in experiment [2] (test suspension 10 ppm) is 98%.
On the same counts, the results for `C=CCOC(=O)c1cc(C)n(Cc2ccc(-c3noc(C(F)(F)F)n3)cc2)n1` [compound 186] are 100% and 74%.
For `CCOC(=O)c1cc(C(C)(C)C)n(Cc2ccc(-c3noc(C(F)(F)F)n3)cc2)n1` [compound 187] the same measures were 0% and 0%.
For the molecule `N#Cc1cnn(Cc2ccc(-c3noc(C(F)(F)F)n3)s2)c1` [compound 189], the “Test A disease control rating” value in experiment [1] (test suspension 50 ppm) turned out to be 100%. The “Test C disease control rating” value in experiment [2] (test suspension 50 ppm) was found to be 100%.
On to `C#CCOC(=O)c1cnn(Cc2ccc(-c3noc(C(F)(F)F)n3)s2)c1` [compound 190], for which the “Test A disease control rating” value in experiment [1] (setting [3]) came to 100%. In addition, the “Test C disease control rating” value in experiment [2] (test suspension 10 ppm) worked out at 100%.
Turning to `N#Cc1ccc2c(cnn2Cc2ccc(-c3noc(C(F)(F)F)n3)s2)c1` [compound 194], the “Test A disease control rating” value in experiment [1] (setting [3]) came out at 100%. Also, the “Test C disease control rating” value in experiment [2] (test suspension 10 ppm) was 100%.
In the case of `COc1ccc2c(cnn2Cc2ccc(-c3noc(C(F)(F)F)n3)s2)c1` [compound 195], the “Test A disease control rating” value in experiment [1] (setting [3]) amounted to 100%. Also, in experiment [2] (test suspension 10 ppm), the “Test C disease control rating” value was determined as 98%.
On the same counts, the results for `FC(F)(F)c1nc(-c2ccc(Cn3ccc4ccccc43)s2)no1` [compound 196] are 100% and 93%.
With `O=Cc1cnn(Cc2ccc(-c3noc(C(F)(F)F)n3)s2)c1` [compound 197], the “Test A disease control rating” value in experiment [1] (setting [3]) is 99%. Besides, the “Test C disease control rating” value in experiment [2] (test suspension 10 ppm) worked out at 98%.
Consider `C=CCOC(=O)c1cnn(Cc2ccc(-c3noc(C(F)(F)F)n3)s2)c1` [compound 199], for which, in experiment [1] (setting [3]), the “Test A disease control rating” value was determined as 100%. Further, the “Test C disease control rating” value in experiment [2] (test suspension 10 ppm) came out at 100%.
Take `CC(C)OC(=O)c1cnn(Cc2ccc(-c3noc(C(F)(F)F)n3)s2)c1` [compound 200]: in experiment [1] (setting [3]), the “Test A disease control rating” value turned out to be 100%. For the same molecule, the “Test C disease control rating” value in experiment [2] (test suspension 10 ppm) is given as 100%.
`N#CC(C#N)NC(=O)c1coc(Cc2ccc(-c3noc(C(F)(F)F)n3)cc2)n1` [compound 203]: the “Test A disease control rating” value in experiment [1] (setting [3]) is reported as 100%. For the same molecule, the “Test C disease control rating” value in experiment [2] (test suspension 10 ppm) was 86%.
For `C[Si](C)(C)CCNC(=O)c1coc(Cc2ccc(-c3noc(C(F)(F)F)n3)cc2)n1` [compound 206] the same measures were 98% and 68%.
On the same counts, the results for `O=C(c1csc(Cc2ccc(-c3noc(C(F)(F)F)n3)cc2)n1)N1CCC(F)(F)C1` [compound 207] are 100% and 86%.
For the molecule `O=C(NCC=C(Cl)Cl)c1csc(Cc2ccc(-c3noc(C(F)(F)F)n3)cc2)n1` [compound 208], the “Test A disease control rating” value in experiment [1] (setting [3]) stood at 100%. Further, the “Test C disease control rating” value in experiment [2] (test suspension 10 ppm) worked out at 86%.
For `CC(COC(=O)c1cnn(Cc2ccc(-c3noc(C(F)(F)F)n3)cc2)c1)=NOC1CCCCO1` (stereo not shown) [compound 218] the same measures were 100% and 98%.
Regarding `CCCCON=C(C)COC(=O)c1cnn(Cc2ccc(-c3noc(C(F)(F)F)n3)cc2)c1` [compound 219], the “Test A disease control rating” value in experiment [1] (setting [3]) came out at 100%. Further, the “Test C disease control rating” value in experiment [2] (test suspension 10 ppm) is reported as 86%.
For `CC(COC(=O)c1cnn(Cc2ccc(-c3noc(C(F)(F)F)n3)cc2)c1)=NOC(C)(C)C` [compound 220], the “Test A disease control rating” value in experiment [1] (setting [3]) is on record as 100%. The “Test C disease control rating” value in experiment [2] (test suspension 10 ppm) was 86%.
On the same counts, the results for `CCON=C(C)COC(=O)c1cnn(Cc2ccc(-c3noc(C(F)(F)F)n3)cc2)c1` [compound 221] are 100% and 95%.
On the same counts, the results for `CC(COC(=O)c1cnn(Cc2ccc(-c3noc(C(F)(F)F)n3)cc2)c1)=NOC(C)C` [compound 222] are 100% and 97%.
On the same counts, the results for `CC(COC(=O)c1cnn(Cc2ccc(-c3noc(C(F)(F)F)n3)cc2)c1)=NO` [compound 223] are 100% and 91%.
Regarding `CCOC(=O)c1cnn(CSCc2ccc(-c3noc(C(F)(F)F)n3)cc2)c1` [compound 241], the “Test A disease control rating” value in experiment [1] (setting [3]) amounted to 100%. The “Test C disease control rating” value in experiment [2] (test suspension 10 ppm) was 100%.
Consider `CCOC(=O)c1cnn(C[S+]([O-])Cc2ccc(-c3noc(C(F)(F)F)n3)cc2)c1` (stereo not shown) [compound 242], for which, in experiment [1] (setting [3]), the “Test A disease control rating” value was 100%. In addition, the “Test C disease control rating” value in experiment [2] (test suspension 10 ppm) is given as 99%.
On the same counts, the results for `CCOC(=O)c1cnn(CS(=O)(=O)Cc2ccc(-c3noc(C(F)(F)F)n3)cc2)c1` [compound 243] are 98% and 85%.
On the same counts, the results for `O=C(COC(=O)c1cnn(Cc2ccc(-c3noc(C(F)(F)F)n3)cc2)c1)c1ccccc1` [compound 244] are 100% and 95%.
